Data set [1] concerns the target purified C. albicans Cho1 (phosphatidylserine synthase) (Candida albicans, UniProt A0A1D8PF32). Description: malachite-green-based nucleotidase-coupled assay, dose-response. Format: biochemical. To be noted: top 200 µM, 3 h at 30°C, three replicates. How it is done:
A malachite-green-based nucleotidase-coupled assay was used to measure the PS synthesis activity of Cho1 (Fig. 1B). Cho1 catalyzes the production of PS and cytidylmonophosphate (CMP) from CDP-DAG and serine, where CMP can then be recognized and cleaved by the nucleotidase CD73 to release inorganic phosphate, which is subsequently detected by malachite green. To test whether this malachite-green-based assay can reflect Cho1 activity, a time-course test was performed with a fixed amount of purified Cho1 in the presence of substrates (Fig. 1C).
The bioactives library was purchased from Selleck in 2014, and the remaining libraries (anti-infectives and mechanism of action libraries) were assembled from compounds available at the Chemical Biology and Therapeutics Department at St. Jude Children’s Research Hospital. The anti-infectives library contains a curated list of antimicrobials and antiviral agents ([95]). The bioactive library has a compilation of compounds acquired from commercial sources and external academic collaborators. The mechanism of action set is a dynamic set of well-annotated compounds with comprehensive coverage of human targets and mechanisms of action ([96]). All compounds were dissolved in DMSO and 100 nL was transferred to a 384-well clear bottom plate (ThermoFisher Scientific, cat# 265203) using a Beckman Echo 650 acoustic liquid handler. Equal volumes of either the selective CD73 nucleotidase inhibitor AB680 at a final concentration of 1 µM (MedChemExpress, cat# HY-125286) or DMSO were used as positive and negative controls, respectively. A total of 30–35 ng of purified Cho1 protein was used in each reaction in 50 mM Tris-HCl (pH 8.0) for primary screening, combined with 100 µM CDP-DAG (Avanti, cat# 870510), 5 mM serine, 0.4 ng CD73 nucleotidase (R&D systems, cat# EA002), 1 mM MnCl2, 0.1% APX-100, and 0.1% digitonin, in a total volume of 10 µL. Counter screen reactions were set up by replacing only the purified Cho1 with 150 µM CMP, with all other components remaining constant. The 10 µL primary and counter screening reactions were delivered to each well of 384-well assay plates containing pre-aliquoted compounds from the library using a Multidrop Combi (ThermoFisher Scientific). […] After media transfer, assay plates were incubated for 3 h at 30°C. Plates were then removed and 32 µL of malachite green mixture [6 µL malachite A (2%, wt/vol, ammonium molybdate and 20%, vol/vol, sulfuric acid in H2O) +20 µL H2O + 6 µL malachite B (0.1%, wt/vol, malachite green oxalate and 0.5%, wt/vol, polyvinyl alcohol in H2O)] were added to each well via a MultiDrop Combi and incubated for an additional 10 min at room temperature. After incubation, plates were briefly centrifuged at 500 × g and absorbance at 620 nm was then measured using a Cytation7 plate reader (Biotek, Winooski, VT). Raw absorbance values of the compounds were normalized to DMSO (0% inhibition) and AB680 (100% inhibition) from both primary and counter screens, and % Δinhibition was calculated by […]. Z-factors for each plate were calculated using the in-house program RISE (Robust Investigation of Screening Experiments). All non-PAINs compounds that had >80% Δinhibition progressed to dose-response testing (82 total compounds). Dose-response experiments were performed in triplicate as described above using a 10-point, threefold serial dilution with the top concentration for each compound tested being 200 µM (range: 0.010161–200 μM). The absorbance at 620 nm was then measured using a PHERAstar FS multilabel reader (BMG, Cary, NC). Raw values were once again normalized to DMSO (0% inhibition) and AB680 (100% inhibition) and Z-factors for each plate were calculated using RISE. […]

Data set [2] can be described thus: precipitation in MIC media. Format: physicochemical.
Data set [3] deals with wild-type C. albicans strain SC5314. Description: CLSI MIC broth microdilution. The format is cell-based, Candida albicans. To be noted: for MIC: Candida albicans; for effect on cell growth in all three media: even at 250 µM. How it is done: We then tested the effects of the six compounds on live cells by determining the minimal inhibitory concentrations (MICs) of these compounds. Following the standard Clinical & Lab Standards Institute (CLSI) MIC broth microdilution methods, wild-type C. albicans strain SC5314 was grown with avasimibe, CBR-5884, tideglusib, ebselen, ML-345, and LOC14 in RPMI MOPS medium (pH 7.0) or alternatively in minimal medium or minimal medium with HEPES (pH 7.0) at 37°C for 48 h, along with a cho1ΔΔ strain as a control (Fig. 3A through C). The concentration of the compounds was varied from 0.5 to 250 µM. […] Ebselen, LOC14, and CBR-5884, on the contrary, stopped cell growth at different concentrations in all three media, with MICs ranging between 7.8 and 31.3 μM (Fig. 3A through D). […] Specific MIC values are summarized in Fig. 3D for all the compounds.
Minimum inhibitory concentration (MIC) was determined following Clinical & Lab Standards Institute (CLSI) MIC broth microdilution protocol (Licensed to Todd Reynolds, license # Ord-1138682) ([98], [99]). Briefly, stock solutions of different compounds (purchased from MedChemExpress) were prepared at a concentration of 10 mM in DMSO and subsequently diluted as required in the same solvent. Wild-type C. albicans strain SC5314, as well as four additional wild-type strains—GDH2346, 3153A, TFPY412, and TFPY2307, were cultured overnight in YPD medium at 30°C, washed with water three times, and then diluted to a concentration of 2 × 10^3 cells/mL (OD600 = 0.00008) in one of the three media [minimal medium, minimal medium buffered with 50 mM HEPES (pH 7.0) and RPMI MOPS (pH 7.0)]. The cho1ΔΔ strain was also included as a control. A volume of 100 µL from each cell suspension was dispensed into the wells of a flat-bottom 96-well plate. An additional 100 µL of corresponding medium, containing twice the final desired concentration of each drug, was added to each well, leading to a final initial inoculum of 1 × 10^3 cells/mL (OD600 = 0.00004). The final DMSO concentration was maintained at 2.5% across all treatments. Following preparation, the plates were incubated at 37°C for 48 h and photos were taken with a Bio-Rad Gel Doc XR + Imaging System.
(Broth dilution looks for growth in wells or tubes with falling amounts of substance.)

Data set [4] deals with the molecule itself. Description: native gel or EMSA; blue native PAGE of purified tag-free Cho1 in digitonin, stained with Coomassie Blue R-250; MW estimated with the band analysis tool of Quantity One.
The mark [5] stands for this setting: 10-point dose-response, read-out: Best-fit IC50, inhibition of Cho1.
Where [6] appears, read: SC5314, RPMI MOPS pH 7.0, 37°C, 48 h, read-out: Minimal Inhibitory Concentration (MIC): RPMI, MOPS 7.0.
Setting [7] is: SC5314, minimal medium with 50 mM HEPES pH 7.0, 37°C, 48 h, read-out: Minimal Inhibitory Concentration (MIC): MM, HEPES 7.0.
Where [8] appears, read: SC5314, minimal medium, 37°C, 48 h, read-out: Minimal Inhibitory Concentration (MIC): MM.

Converted amounts (≈) assume the structure as drawn. “And” between values parts separate entries of the source, which are not always exact repeats. Identical values can stand only once. Like-named read-outs stand apart in the source and are kept apart here.

Regarding `CC(C)c1cc(C(C)C)c(CC(=O)NS(=O)(=O)Oc2c(C(C)C)cccc2C(C)C)c(C(C)C)c1` [Avasimibe], in data set [1] (setting [5]), the IC50 was about 23.4 µM. In addition, the “solubility in MIC media” value in data set [2] is on record as “precipitated at high concentrations”. Moreover, the MIC in data set [3] (setting [6]), in data set [3] (setting [7]) and in data set [3] (setting [8]) was over 500 µM in each case. For the same molecule, the “effect on cell growth in all three media” value in data set [3] is listed as “did not affect cell growth”.
With `O=c1c2cc(F)ccc2sn1-c1cc(S(=O)(=O)N2CCOCC2)ccc1N1CCOCC1` [ML-345], in data set [1] (setting [5]), the IC50 was ≤ 20 µM and ~15.5 µM. Moreover, the MIC in data set [3] (SC5314, 48 h, pH 7, read-out: Minimal Inhibitory Concentration (MIC): MM, HEPES 7.0) was over 500 µM; in data set [3] (SC5314, 48 h, pH 7, read-out: Minimal Inhibitory Concentration (MIC): RPMI, MOPS 7.0) it was 31.3 µM (≈ 15 µg/mL); in data set [3] (SC5314, 48 h, read-out: Minimal Inhibitory Concentration (MIC): MM), over 500 µM. For the same molecule, the “effect on cells grown in the minimal media” value in data set [3] (minimal media) was “had no effect”.
For `c1ccc(Nc2nc3c(s2)CCCc2[nH]ncc2-3)nc1` [TC-N 22A], in data set [1] (setting [5]), the IC50 was about 65.3 µM.
`O=c1sn(-c2cccc3ccccc23)c(=O)n1Cc1ccccc1` [Tideglusib]: the IC50 in data set [1] (Best-fit IC50, inhibition of Cho1, 10-point dose-response) is ≤ 20 µM and ~8.53 µM. In data set [2] (concentrations 0.5 to 250 µM), the “solubility in MIC media” value was “precipitated at high concentrations”. Moreover, the MIC in data set [3] (setting [6]), in data set [3] (setting [7]) and in data set [3] (setting [8]) was over 500 µM throughout. In addition, in data set [3], the “effect on cell growth in all three media” value was “did not affect cell growth”.

B1: Candida albicans phosphatidylserine synthase Cho1 (enzyme, UniProt A0A1D8PF32 1-273, looked up)
chain: MSDSSATGFSKHQESAIVSDSEGDAIDSELHMSANPPLLRRSSSLFSLSSKDDLPKPDSKEYLKFIDDNRHFSMIRNLHMADFITLLNGFSGFYSIISCLRYTLTGQTHYVQRAHFFILLGLFFDFFDGRVARLRNKSSLMGQELDSLADLVSFGVSPATIAFAIGFRTTVDVLFLAFWVLCGLTRLARFNISVNNIPKDKHGKSQYFEGLPIPTNLFWVGFMALLVYKDWIHDNLPFGIVFQDTSFEFHLVTIGFVLQGCAEISKSLKIPKP
notes: Cho1, phosphatidylserine synthase (EC 2.7.8.8) of Candida albicans, CHO1 gene expressed from the TEF1 promoter; A TEV site (ENLYFQG) lies between Cho1 and the HAx3-HISx8 tag; The forward cloning primer begins at the ATG of CHO1; also called PS synthase; CDP-diacylglycerol-serine O-phosphatidyltransferase; not shown: HAx3, C-terminal, cleaved; His8, C-terminal, cleaved
As for B1, in data set [4], the “stoichiometry N” value is 6.

Usually IC50 stands for the concentration needed to halve the response being measured. What is called stoichiometry N is the number of molecules, sites or subunits per partner or assembly.
